# Results taken from patent US20030226158A1, “Cds1 knockout cells and mice, and their utilization” (priority 2000, published 2003).
# Tested on: p53 protein
# Test: X-ray irradiation-induced p53 protein expression in ES cells, western blotting
# Format: cell-based, mouse
# Conditions: X-ray irradiated, western blotting with antibody against p53
# Protocol: The analysis was done by western blotting.
# ES cell lines in which one or both Cds1 (Chk2) alleles were inactivated (Cds1 (Chk2)+/− and Cds1 (Chk2)−/−) were treated with trypsin and counted. Then, a constant number of ES cells were plated in 6-well plates in which feeder cells had been planted in advance. MEF (mouse embryonic fibroblast) was used as feeder cells. The cells were treated with X ray and cultured in an CO2 incubator for 6 hours. Then, a cell extract was prepared, the proteins were separated by SDS-PAGE, and transferred to a PVDF membrane. p53 protein was quantified by conducting western blotting using an antibody against p53.
structure (smiles),measurement,setting,value
Cn1c(=O)c2c(ncn2C)n(C)c1=O [caffeine],induction of p53 expression after irradiation,Cds1-/- ES cells,inhibited
same,induction of p53 expression after irradiation,wild type ES cells,inhibited
